Measurements as given in patent publication US8802597B2, “Herbicidal pyrimidines” (E I du Pont de Nemours and Company, priority 2003, dated 2014).
Read-outs that look alike come from different tables or passages of the source.

Key:
Format in all cases: in vivo
[1] = system: barnyardgrass (Echinochloa crus-galli); experiment: Test A pre/postemergence; conditions: Echinochloa crus-galli, 240 h, read-out: Plant response rating, Barnyardgrass; for pest or weed control at 125 g/ha: 125 g ai/ha; for pest or weed control at 500 g/ha: 500 g ai/ha
Method in brief: (§1)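 Seeds sown in loam–sand blend received a preemergence directed soil spray of test chemical in non-phytotoxic solvent with surfactant; same-formulation postemergence spray given concurrently to plants 2–10 cm tall at 1- to 2-leaf stage. Greenhouse ~ten days, then visual injury rating versus untreated controls, 0 (no effect) to 100 (complete control).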

[2] = system: giant foxtail (Setaria faberi); experiment: Test A pre/postemergence; conditions: Setaria faberi, 240 h, read-out: Plant response rating, Foxtail, Giant; for pest or weed control at 125 g/ha: 125 g ai/ha; for pest or weed control at 500 g/ha: 500 g ai/ha
Method in brief: as §1

[3] = system: bermudagrass (Cynodon dactylon); experiment: Test C pre/postemergence; conditions: Cynodon dactylon; for pest or weed control at 8 g/ha: 8 g ai/ha; for pest or weed control at 16 g/ha: 16 g ai/ha; for pest or weed control at 31 g/ha: 31 g ai/ha; for pest or weed control at 62 g/ha: 62 g ai/ha
Method in brief: (§2)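 Greenhouse pot test: seeds treated preemergence, or plants at 2–18 cm (1- to 4-leaf stage) treated postemergence, with compound in non-phytotoxic solvent plus surfactant. Visual rating versus untreated controls after 12–14 days, scale 0 (no effect) to 100 (complete control); dash means not tested.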

[4] = system: cocklebur (Xanthium strumarium); experiment: Test C pre/postemergence; conditions: Xanthium strumarium; for pest or weed control at 8 g/ha: 8 g ai/ha; for pest or weed control at 16 g/ha: 16 g ai/ha; for pest or weed control at 31 g/ha: 31 g ai/ha; for pest or weed control at 62 g/ha: 62 g ai/ha
Method in brief: as §2

corn (Zea mays) = experiment: Test C pre/postemergence; conditions: Zea mays; for Corn plant response rating (crop injury, 0 = no effect, 100 = complete kill) at 8 g/ha: 8 g ai/ha; for Corn plant response rating (crop injury, 0 = no effect, 100 = complete kill) at 16 g/ha: 16 g ai/ha; for Corn plant response rating (crop injury, 0 = no effect, 100 = complete kill) at 62 g/ha: 62 g ai/ha
Method in brief: as §2

[5] = system: crabgrass (Digitaria sanguinalis); experiment: Test C pre/postemergence; conditions: Digitaria sanguinalis; for pest or weed control at 8 g/ha: 8 g ai/ha; for pest or weed control at 16 g/ha: 16 g ai/ha; for pest or weed control at 31 g/ha: 31 g ai/ha; for pest or weed control at 62 g/ha: 62 g ai/ha
Method in brief: as §2

[6] = system: eastern black nightshade (Solanum ptycanthum); experiment: Test C pre/postemergence; conditions: Solanum, pre-emergence, Preemergence, read-out: Plant response rating, Nightshade
Method in brief: as §2

[7] = system: goosegrass (Eleusine indica); experiment: Test C pre/postemergence; conditions: Eleusine indica; for pest or weed control at 8 g/ha: 8 g ai/ha; for pest or weed control at 16 g/ha: 16 g ai/ha; for pest or weed control at 31 g/ha: 31 g ai/ha; for pest or weed control at 62 g/ha: 62 g ai/ha
Method in brief: as §2

[8] = system: lambsquarters (Chenopodium album); experiment: Test C pre/postemergence; conditions: Chenopodium album; for pest or weed control at 8 g/ha: 8 g ai/ha; for pest or weed control at 16 g/ha: 16 g ai/ha; for pest or weed control at 31 g/ha: 31 g ai/ha; for pest or weed control at 62 g/ha: 62 g ai/ha
Method in brief: as §2

[9] = system: velvetleaf (Abutilon theophrasti); experiment: Test C pre/postemergence; conditions: Abutilon theophrasti; for pest or weed control at 8 g/ha: 8 g ai/ha; for pest or weed control at 16 g/ha: 16 g ai/ha; for pest or weed control at 31 g/ha: 31 g ai/ha; for pest or weed control at 62 g/ha: 62 g ai/ha
Method in brief: as §2

[10] = post-emergence, Postemergence, 0 to 100 scale (0 no effect, 100 complete control)
[11] = pre-emergence, Preemergence, 0 to 100 scale where 0 is no effect and 100 is complete control, approximately ten days
[12] = post-emergence, Postemergence, read-out: Plant response rating (scale of 0 to 100), Bermudagrass
[13] = pre-emergence, Preemergence, scale 0 to 100, 0 no effect, 100 complete control, read-out: Plant response rating, Bermudagrass
[14] = post-emergence, Postemergence, read-out: Plant response rating (scale of 0 to 100), Cocklebur
[15] = pre-emergence, Preemergence, scale 0 to 100, 0 no effect, 100 complete control, read-out: Plant response rating, Cocklebur
[16] = post-emergence, Postemergence, read-out: Plant response rating (scale of 0 to 100), Corn
[17] = pre-emergence, Preemergence, scale 0 to 100, 0 no effect, 100 complete control, read-out: Plant response rating, Corn
[18] = post-emergence, Postemergence, read-out: Plant response rating (scale of 0 to 100), Crabgrass
[19] = pre-emergence, Preemergence, scale 0 to 100, 0 no effect, 100 complete control, read-out: Plant response rating, Crabgrass
[20] = post-emergence, Postemergence, read-out: Plant response rating (scale of 0 to 100), Goosegrass
[21] = pre-emergence, Preemergence, scale 0 to 100, 0 no effect, 100 complete control, read-out: Plant response rating, Goosegrass
[22] = post-emergence, Postemergence, read-out: Plant response rating (scale of 0 to 100), Lambsquarters
[23] = pre-emergence, Preemergence, scale 0 to 100, 0 no effect, 100 complete control, read-out: Plant response rating, Lambsquarters
[24] = post-emergence, Postemergence, read-out: Plant response rating (scale of 0 to 100), Velvetleaf
[25] = pre-emergence, Preemergence, scale 0 to 100, 0 no effect, 100 complete control, read-out: Plant response rating, Velvetleaf

## Nc1nc(-c2ccc(Br)cc2)nc(C(=O)O)c1Cl [Compound 95, 6-amino-2-(4-bromophenyl)-5-chloro-4-pyrimidinecarboxylic acid]
[1]; [10]
  pest or weed control at 125 g/ha: 75%
  pest or weed control at 500 g/ha: 90%
[1]; [11]
  pest or weed control at 125 g/ha: 20%
  pest or weed control at 500 g/ha: 80%
[2]; [10]
  pest or weed control at 125 g/ha: 85%
  pest or weed control at 500 g/ha: 85%
[2]; [11]
  pest or weed control at 125 g/ha: 65%
  pest or weed control at 500 g/ha: 90%
[3]; post-emergence, Postemergence, scale 0 to 100 (0 no effect, 100 complete control), read-out: Plant response rating, Bermudagrass
  pest or weed control at 8 g/ha: 70%
[3]; [12]
  pest or weed control at 16 g/ha: 70%
  pest or weed control at 31 g/ha: 85%
[3]; post-emergence, Postemergence, scale 0 to 100 (0 no effect, 100 complete control), read-out: Bermudagrass plant response rating
  pest or weed control at 62 g/ha: 85%
[3]; pre-emergence, Preemergence, scale 0 to 100 (0 no effect, 100 complete control), read-out: Plant response rating, Bermudagrass
  pest or weed control at 8 g/ha: 0%
[3]; [13]
  pest or weed control at 16 g/ha: 0%
  pest or weed control at 31 g/ha: 0%
  pest or weed control at 62 g/ha: 55%
[4]; post-emergence, Postemergence, scale 0 to 100, read-out: Plant response rating, Cocklebur
  pest or weed control at 8 g/ha: 100%
[4]; [14]
  pest or weed control at 16 g/ha: 100%
  pest or weed control at 31 g/ha: 100%
  pest or weed control at 62 g/ha: 100%
[4]; pre-emergence, Preemergence, scale 0 to 100 (0 no effect, 100 complete control), read-out: Plant response rating, Cocklebur
  pest or weed control at 8 g/ha: 0%
[4]; [15]
  pest or weed control at 16 g/ha: 0%
  pest or weed control at 31 g/ha: 0%
  pest or weed control at 62 g/ha: 60%
Corn (Zea mays); post-emergence, Postemergence, scale 0 to 100
  Corn plant response rating (crop injury, 0 = no effect, 100 = complete kill) at 8 g/ha: 20%
Corn (Zea mays); [16]
  Corn plant response rating (crop injury, 0 = no effect, 100 = complete kill) at 16 g/ha: 20%
  Corn plant response rating (crop injury, 0 = no effect, 100 = complete kill) at 62 g/ha: 35%
Corn (Zea mays); pre-emergence, Preemergence, scale 0 to 100 (0 no effect, 100 complete control)
  Corn plant response rating (crop injury, 0 = no effect, 100 = complete kill) at 8 g/ha: 0%
Corn (Zea mays); [17]
  Corn plant response rating (crop injury, 0 = no effect, 100 = complete kill) at 16 g/ha: 0%
  Corn plant response rating (crop injury, 0 = no effect, 100 = complete kill) at 62 g/ha: 5%
Corn (Zea mays); pre-emergence, Preemergence, 31 g ai/ha, scale 0 to 100, 0 no effect, 100 complete control, read-out: Plant response rating, Corn
  Corn plant response rating (crop injury, 0 = no effect, 100 = complete kill) at 31 g/ha: 0%
[5]; post-emergence, Postemergence, scale 0 to 100, read-out: Plant response rating, Crabgrass
  pest or weed control at 8 g/ha: 75%
[5]; [18]
  pest or weed control at 16 g/ha: 75%
  pest or weed control at 31 g/ha: 80%
  pest or weed control at 62 g/ha: 80%
[5]; pre-emergence, Preemergence, scale 0 to 100 (0 no effect, 100 complete control), read-out: Plant response rating, Crabgrass
  pest or weed control at 8 g/ha: 0%
[5]; [19]
  pest or weed control at 16 g/ha: 0%
  pest or weed control at 31 g/ha: 30%
  pest or weed control at 62 g/ha: 35%
[6]; 8 g ai/ha, scale 0 to 100 (0 no effect, 100 complete control)
  pest or weed control at 8 g/ha: 0%
[6]; 16 g ai/ha, scale 0 to 100, 0 no effect, 100 complete control
  pest or weed control at 16 g/ha: 0%
[6]; 31 g ai/ha, scale 0 to 100, 0 no effect, 100 complete control
  pest or weed control at 31 g/ha: 60%
[6]; 62 g ai/ha, scale 0 to 100, 0 no effect, 100 complete control
  pest or weed control at 62 g/ha: 75%
[7]; post-emergence, Postemergence, scale 0 to 100, read-out: Plant response rating, Goosegrass
  pest or weed control at 8 g/ha: 50%
[7]; [20]
  pest or weed control at 16 g/ha: 65%
  pest or weed control at 31 g/ha: 75%
  pest or weed control at 62 g/ha: 80%
[7]; pre-emergence, Preemergence, scale 0 to 100 (0 no effect, 100 complete control), read-out: Plant response rating, Goosegrass
  pest or weed control at 8 g/ha: 0%
[7]; [21]
  pest or weed control at 16 g/ha: 0%
  pest or weed control at 31 g/ha: 10%
  pest or weed control at 62 g/ha: 40%
[8]; post-emergence, Postemergence, scale 0 to 100, read-out: Plant response rating, Lambsquarters
  pest or weed control at 8 g/ha: 75%
[8]; [22]
  pest or weed control at 16 g/ha: 100%
  pest or weed control at 31 g/ha: 100%
  pest or weed control at 62 g/ha: 100%
[8]; pre-emergence, Preemergence, scale 0 to 100 (0 no effect, 100 complete control), read-out: Plant response rating, Lambsquarters
  pest or weed control at 8 g/ha: 0%
[8]; [23]
  pest or weed control at 16 g/ha: 100%
  pest or weed control at 31 g/ha: 100%
  pest or weed control at 62 g/ha: 100%
[9]; post-emergence, Postemergence, scale 0 to 100, read-out: Plant response rating, Velvetleaf
  pest or weed control at 8 g/ha: 95%
[9]; [24]
  pest or weed control at 16 g/ha: 95%
  pest or weed control at 31 g/ha: 100%
  pest or weed control at 62 g/ha: 100%
[9]; pre-emergence, Preemergence, scale 0 to 100 (0 no effect, 100 complete control), read-out: Plant response rating, Velvetleaf
  pest or weed control at 8 g/ha: 0%
[9]; [25]
  pest or weed control at 16 g/ha: 0%
  pest or weed control at 31 g/ha: 60%
  pest or weed control at 62 g/ha: 90%
